Test results as given in article PMC12736958 (Pharmaceutics, 2025).
“And” between values parts separate entries of the source, which are not always exact repeats. Identical values can stand only once. Blank lines part the entries; values can stand above or below the compound they belong to.

Key:
[1] = in vivo pharmacokinetic study in rats; set-up: species or system Sprague-Dawley (SD) rats; settings: rat; for plasma concentration of Cur, individual animals: Rat1-Rat5, listed as Intravenous Cur
Protocol: Male Sprague-Dawley (SD) rats (200 ± 20 g) were supplied by SPF Biotechnology Co., Ltd. (Beijing, China) and housed under standard laboratory conditions throughout the study. All animals were housed in a controlled environment (22 ± 2 °C, 55 ± 10% humidity) under a 12/12 h light/dark cycle, with free access to a standard laboratory rodent diet and water. A 12 h fasting period was implemented prior to the experiment, with water permitted ad libitum. All animal procedures were performed in strict accordance with protocols approved by the Biological and Medical Ethics Committee of Minzu University of China.
After fasting for 12 h (with free access to water), SD rats (n = 25) were randomly divided into five groups (n = 5 per group). Group 1: crystalline Cur (i.v., dissolved in saline with 5% DMSO). Group 2: crystalline Cur (p.o., suspended in 0.5% CMC-Na). Group 3: Cur/P188 ASD (1:8, w/w; p.o.). Group 4: Cur/P188/TW80 ASD (1:8:1, w/w/w; p.o.). Group 5: Cur/P188/SLS ASD (1:8:1, w/w/w; p.o.). Group 1 received the formulation via tail vein injection, while Groups 2–5 were suspended in water (pH 7.0) and administered orally by gavage at a Cur-equivalent dose of 40 mg/kg. Blood samples (0.2 mL) were collected from each rat at 4, 7, 10, 20, and 30 min, and 1, 2, 4, and 24 h post-dosing. Plasma was separated by centrifugation (5000 rpm, 5 min, 4 °C) and stored at −80 °C until analysis.
Cur was extracted from 50 μL of plasma using 600 μL of ethyl acetate and quantified by LC-MS/MS, with diclofenac sodium (20 μL, 200 ng/mL) serving as the internal standard. Blank plasma was obtained from a separate control group (n = 5) that received water only. Analysis of these blank samples confirmed the absence of significant matrix interference, thereby validating the analytical method.
(§1) Cur quantification in cellular and rat plasma samples was carried out using a SCIEX QTRAP® 5500 LC-MS/MS system coupled with a SCIEX ExionLC^TM AC system (AB SCIEX, Framingham, MA, USA).
Separation was achieved on an Acquity UPLC® BEH C18 column (100 × 2.1 mm, 1.7 μm; Waters) maintained at 40 °C. The mobile phase consisted of (A) 0.1% formic acid in water and (B) acetonitrile (ACN), delivered at a flow rate of 0.14 mL/min with the following gradient program: 10% B (0–1.0 min), increased to 95% B (1.0–9.0 min), and returned to 10% B (9.0–12.0 min). The injection volume was 5 μL. The retention times were approximately 4.85 min for Cur and 6.70 min for diclofenac sodium, used as the internal standard (IS).
Mass spectrometric detection was performed using an IonDrive^TM Turbo V ion (SCIEX, Framingham, MA, USA) source operating in negative electrospray ionization (ESI) mode. Quantification was conducted via multiple reaction monitoring (MRM) at m/z 367.1→133.9 for Cur, and m/z 294.1→250.0 for diclofenac sodium (IS). The assay was linear over the concentration range of 2-500 ng/mL (R^2 > 0.999). All data were acquired in triplicate (n = 3) and processed using MultiQuant software version 3.0.2 (AB SCIEX).
Pharmacokinetic parameters were calculated using non-compartmental analysis with DAS 2.0 software (Boying Corporation, Beijing, China). Data analysis was performed using GraphPad Prism 10.1.2 software. The result is expressed as mean ± standard deviation (SD). For pairwise comparisons between groups, t-tests were conducted. For multiple group comparisons, one-way analysis of variance (ANOVA) was performed, followed by Tukey’s post hoc test for multiple comparisons. Prior to ANOVA, the assumptions of normality and homogeneity of variances were verified using the Shapiro–Wilk test and Bartlett’s test, respectively. p < 0.05 indicates statistically significant differences.

[2] = cited from earlier work
[3] = equilibrium solubility of crystalline Cur in excipient solutions; format: physicochemical; settings: pure water, pH 7.0, 37 °C, filtered 0.22 μm, read-out: equilibrium solubility (Cur con.)
Protocol: Excess crystalline Cur was suspended in each solution, vortexed (1 min), sonicated (10 min), and incubated (37 °C, 24 h). After incubation, suspensions were filtered (0.22 μm), and Cur concentration in the filtrate was quantified using HPLC/UV-Vis (HPLC/UV-Vis Method section). All experiments were performed in quadruplicate (n = 4).
Cur content in in vitro dissolution samples was quantified using a Waters 2695 Alliance HPLC system (Waters Corporation, Milford, MA, USA) equipped with a Waters 2998 photodiode array (PDA) detector. Separation was performed on an XBridge® C18 column (4.6 × 250 mm, 5.0 μm; Waters) maintained at 25 °C. The mobile phase, composed of water and methanol (80:20, v/v), was delivered isocratically at a flow rate of 1.0 mL/min. The injection volume was 10 μL, and detection was performed at 430 nm, and Cur eluted at approximately 4.80 min. […] All data were acquired in triplicate (n = 3) and processed using Empower®3 Software (Waters).

MDCK cells [4] = experiment: cytotoxicity assay (CCK-8 cell viability); format: cell-based, canine; settings: 4 h treatment
Protocol: Madin-Darby Canine Kidney (MDCK) cells were seeded in 96-well plates (1 × 10^5 cells/well) and cultured for 24 h at 37 °C in complete DMEM (10% FBS, 1% penicillin–streptomycin) under 5% CO2. Cells were treated for 4 h with 100 µL of complete DMEM media (pH 7.4) containing crystalline Cur, amorphous Cur, binary Cur/P188 ASD (1:8, w/w), or ternary Cur/P188/TW80 or Cur/P188/SLS ASDs (1:8:1, w/w/w), at Cur-equivalent concentrations of 0 (vehicle), 2, 10, 25, 50, 100, and 200 μg/mL. After treatment, cells were washed three times with PBS (pH 7.4). Cell viability was assessed using a CCK-8 assay: 100 µL of serum-free DMEM and 10 µL of CCK-8 reagent were added to each well, followed by incubation for 2 h. Absorbance was measured at 450 nm using a Multiskan GO microplate reader (Thermo Fisher Scientific, Vantaa, Finland).
Cell viability was calculated according to the following equation:Viability (%) = [(As − Aᵦ)/(Ac − Aᵦ)] × 100% where
• As is the absorbance of experimental wells (cells + treatment + CCK-8); • Ac is the absorbance of control wells (cells + medium + CCK-8, no drug); • Aᵦ is the absorbance of blank wells (medium + CCK-8, no cells, no drug).
All experiments were performed in quintuplicate (n = 5).

[5] = PXRD crystallinity of precipitates collected during dissolution; format: physicochemical; settings: precipitates collected at 20 min and 1 h of non-sink dissolution
Protocol: PXRD was used to characterize the crystalline nature of both freshly prepared Cur ASDs and precipitates collected during their dissolution. Measurements were conducted on a Rigaku Smartlab diffractometer (Rigaku Corporation, Tokyo, Japan) configured in Bragg–Brentano geometry using Cu Kα1 radiation. Diffractograms were collected over a 2θ range of 0° to 60° with a step size of 0.01°.
(§2) The dissolution behavior of Cur formulations was evaluated under non-sink conditions. Tested formulations included pure amorphous Cur, binary Cur/P188 ASD (1:8, w/w), and ternary Cur/P188/TW80 and Cur/P188/SLS ASDs (1:8:1, w/w/w). Each sample was introduced into 6 mL of water (pH 7.0) to achieve a Cur-equivalent concentration of 1 mg/mL at 37 °C. Aliquots (0.4 mL) were collected at 10, 20, and 45 min, as well as at 1h and 2 h, and immediately centrifuged (10,000 rpm, 3 min, 25 °C) to separate the supernatant from the precipitate. (1) The supernatant was diluted 1:2 (v/v) with methanol and analyzed for Cur concentration via HPLC/UV-Vis; (2) The precipitate was vacuum-dried and analyzed for crystallinity using PXRD.

MDCK cells [6] = experiment: cellular uptake study (LC-MS/MS of intracellular Cur); format: cell-based, canine; settings: 10 min incubation, 5 μg Cur-equivalent (10 μg/mL)
Protocol: MDCK cells were seeded in 24-well plates and cultured following the procedures described in Cytotoxicity Assay section. The cells were treated with 500 µL of complete DMEM medium (pH 7.4) containing crystalline Cur, amorphous Cur, binary Cur/P188 ASD (1:8, w/w), or ternary Cur/P188/TW80 or Cur/P188/SLS ASDs (1:8:1, w/w/w), at Cur-equivalent dose of 5 µg per well. After 10 min of incubation, the treatment was terminated by immediate removal of the medium. The cells were then washed three times with ice-cold PBS, lysed with 200 µL of 0.1% SDS (assisted by sonication), and dissolved in methanol at a 1:2 (v/v) ratio. The total intracellular Cur content was quantified using LC-MS/MS. All experiments were performed in quadruplicate (n = 4).
as §1
Separation was achieved on an Acquity UPLC® BEH C18 column (100 × 2.1 mm, 1.7 μm; Waters) maintained at 40 °C. […]
Mass spectrometric detection was performed using an IonDrive^TM Turbo V ion (SCIEX, Framingham, MA, USA) source operating in negative electrospray ionization (ESI) mode. Quantification was conducted via multiple reaction monitoring (MRM) at m/z 367.1→133.9 for Cur, and m/z 294.1→250.0 for diclofenac sodium (IS). […]

[7] = in vitro non-sink dissolution; format: physicochemical; settings: Cur-equivalent 1 mg/mL, water pH 7.0, 37 °C
Protocol: as §2
All dissolution experiments were conducted in triplicate (n = 3).
Cur content in in vitro dissolution samples was quantified using a Waters 2695 Alliance HPLC system (Waters Corporation, Milford, MA, USA) equipped with a Waters 2998 photodiode array (PDA) detector. Separation was performed on an XBridge® C18 column (4.6 × 250 mm, 5.0 μm; Waters) maintained at 25 °C. The mobile phase, composed of water and methanol (80:20, v/v), was delivered isocratically at a flow rate of 1.0 mL/min. The injection volume was 10 μL, and detection was performed at 430 nm, and Cur eluted at approximately 4.80 min. […]

[8] = male, Sprague-Dawley, plasma, iv, 40 mg/kg Cur-equivalent

- Cmax [1, 8]: 334 ± 9.6 ng/mL
- Tmax [1, 8]: 6 min
- half-life [1, 8]: 108 ± 12 min
- MRT last ([1]; male, Sprague-Dawley, plasma, iv, i.v., 40 mg/kg Cur-equivalent, read-out: MRT(0–24)): 5.2 ± 0.2 h
- concentration at 0.07 h ([1]; male, Sprague-Dawley, plasma, iv, 40 mg/kg, i.v., 40 mg/kg, 0.07 h, Rat1-Rat5, read-out: plasma concentration of Cur, individual animals): 331 ng/mL
- concentration at 0.12 h ([1]; male, Sprague-Dawley, plasma, iv, 40 mg/kg, i.v., 40 mg/kg, 0.12 h, Rat1-Rat5, read-out: plasma concentration of Cur, individual animals): 261 ng/mL
- concentration at 0.17 h ([1]; male, Sprague-Dawley, plasma, iv, 40 mg/kg, i.v., 40 mg/kg, 0.17 h, Rat1-Rat5, read-out: plasma concentration of Cur, individual animals): 220 ng/mL
- concentration at 0.33 h ([1]; male, Sprague-Dawley, plasma, iv, 40 mg/kg, i.v., 40 mg/kg, 0.33 h, Rat1-Rat5, read-out: plasma concentration of Cur, individual animals): 181 ng/mL
- concentration at 0.5 h ([1]; male, Sprague-Dawley, plasma, iv, 40 mg/kg, i.v., 40 mg/kg, 0.5 h, Rat1-Rat5, read-out: plasma concentration of Cur, individual animals): 160 ng/mL
- concentration at 1 h ([1]; male, Sprague-Dawley, plasma, iv, 40 mg/kg, i.v., 40 mg/kg, 1 h, Rat1-Rat5, read-out: plasma concentration of Cur, individual animals): 85.2 ng/mL
- concentration at 2 h ([1]; male, Sprague-Dawley, plasma, iv, 40 mg/kg, i.v., 40 mg/kg, 2 h, Rat1-Rat5, read-out: plasma concentration of Cur, individual animals): 50.6 ng/mL
- concentration at 4 h ([1]; male, Sprague-Dawley, plasma, iv, 40 mg/kg, i.v., 40 mg/kg, 4 h, Rat1-Rat5, read-out: plasma concentration of Cur, individual animals): 25.9 ng/mL
- concentration at 24 h ([1]; male, Sprague-Dawley, plasma, iv, 40 mg/kg, i.v., 40 mg/kg, 24 h, Rat1-Rat5, read-out: plasma concentration of Cur, individual animals): 8.3 ng/mL
Structure (SMILES): COc1cc(/C=C/C(=O)CC(=O)/C=C/c2ccc(O)c(OC)c2)ccc1O [Solution Cur, Curcumin]
- plasma concentration of Cur, individual animals ([1]; i.v., 40 mg/kg, 0.07 h): 340.1 ng/mL and 337.1 ng/mL and 323.9 ng/mL and 342.5 ng/mL
- plasma concentration of Cur, individual animals ([1]; i.v., 40 mg/kg, 0.12 h): 255.2 ng/mL and 257.9 ng/mL and 258.8 ng/mL and 264.3 ng/mL
- plasma concentration of Cur, individual animals ([1]; i.v., 40 mg/kg, 0.17 h): 215.1 ng/mL and 212.7 ng/mL and 219.1 ng/mL and 237.5 ng/mL
- plasma concentration of Cur, individual animals ([1]; i.v., 40 mg/kg, 0.33 h): 192.4 ng/mL and 207.1 ng/mL and 170.5 ng/mL and 217.7 ng/mL
- plasma concentration of Cur, individual animals ([1]; i.v., 40 mg/kg, 0.5 h): 130.3 ng/mL and 126.5 ng/mL and 120.8 ng/mL and 194.6 ng/mL
- plasma concentration of Cur, individual animals ([1]; i.v., 40 mg/kg, 1 h): 96.5 ng/mL and 101.5 ng/mL and 102.2 ng/mL and 65.3 ng/mL
- plasma concentration of Cur, individual animals ([1]; i.v., 40 mg/kg, 2 h): 63.9 ng/mL and 65.1 ng/mL and 75.3 ng/mL and 40.5 ng/mL
- plasma concentration of Cur, individual animals ([1]; i.v., 40 mg/kg, 4 h): 35.9 ng/mL and 25.7 ng/mL and 32.9 ng/mL and 22.5 ng/mL
- plasma concentration of Cur, individual animals ([1]; i.v., 40 mg/kg, 24 h): 10.2 ng/mL and 9.5 ng/mL and 8.5 ng/mL and 8.7 ng/mL

- solubility thermodynamic at 24 h [3]: < 0.1 µg/mL
Structure (SMILES): COc1cc(/C=C/C(=O)CC(=O)/C=C/c2ccc(O)c(OC)c2)ccc1O [Curcumin]
- logP [2]: ≈ 3

- crystallinity of precipitates during dissolution (PXRD) [5]: crystallized immediately upon hydration
- cellular uptake (% of the administered dose) (MDCK cells [6]): 1.4%
- dissolved Cur concentration reached over 2 h [7]: ~ 1 μg/mL
Structure (SMILES): COc1cc(/C=C/C(=O)CC(=O)/C=C/c2ccc(O)c(OC)c2)ccc1O [amorphous Cur, Curcumin]
- IC50 (cytotoxicity, Cur-equivalent) (MDCK cells [4]): 54.7 µg/mL
